Test results from patent publication US12077503B2, “Substituted cyclic amides and their use as herbicides” (FMC CORPORATION, priority 2015, dated 2024).
Read-outs that look alike come from different tables or passages of the source.

Legend:
Assay type in all cases: in vivo
Kochia (Kochia scoparia) [1] = test: Test A preemergence; conditions: Bassia scoparia, pre-emergence, 240 h, 0 to 100 scale where 0 is no effect and 100 is complete control, read-out: Kochia plant response rating; for pest or weed control at 31 g/ha: 31 g ai/ha, Preemergence; for pest or weed control at 125 g/ha: 125 g ai/ha, preemergence, approx. 10 d
Summary of the method: (§1)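 Each rating is a visual injury score from 0 to 100 given about 10 d after treatment, judged against untreated controls kept alongside in the greenhouse. In loam soil–sand blend, seeds got a preemergence directed soil spray, while postemergence plants were 2 to 10 cm tall at spraying.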

[2] = system: barnyardgrass (Echinochloa crus-galli); test: Test A preemergence; conditions: Echinochloa crus-galli, pre-emergence, 240 h, 0 to 100 scale where 0 is no effect and 100 is complete control, read-out: Barnyardgrass plant response rating; for pest or weed control at 31 g/ha: 31 g ai/ha, Preemergence; for pest or weed control at 125 g/ha: 125 g ai/ha, preemergence, approx. 10 d
Summary of the method: as §1

[3] = system: giant foxtail (Setaria faberii); test: Test A preemergence; conditions: Setaria faberi, pre-emergence, 240 h, 0 to 100 scale where 0 is no effect and 100 is complete control, read-out: Foxtail, Giant plant response rating; for pest or weed control at 31 g/ha: 31 g ai/ha, Preemergence; for pest or weed control at 125 g/ha: 125 g ai/ha, preemergence, approx. 10 d
Summary of the method: as §1

[4] = system: pigweed (Amaranthus retroflexus); test: Test A preemergence; conditions: Amaranthus retroflexus, pre-emergence, 240 h, 0 to 100 scale where 0 is no effect and 100 is complete control, read-out: Pigweed plant response rating; for pest or weed control at 31 g/ha: 31 g ai/ha, Preemergence; for pest or weed control at 125 g/ha: 125 g ai/ha, preemergence, approx. 10 d
[5] = system: ragweed (common ragweed, Ambrosia elatior); test: Test A preemergence; conditions: Ambrosia artemisiifolia, pre-emergence, 240 h, 0 to 100 scale where 0 is no effect and 100 is complete control, read-out: Ragweed plant response rating; for pest or weed control at 31 g/ha: 31 g ai/ha, Preemergence; for pest or weed control at 125 g/ha: 125 g ai/ha, preemergence, approx. 10 d
Summary of the method: as §1

[6] = system: ryegrass, Italian (Italian ryegrass, Lolium multiflorum); test: Test A preemergence; conditions: Lolium multiflorum, pre-emergence, 240 h, 0 to 100 scale where 0 is no effect and 100 is complete control, read-out: Ryegrass, Italian plant response rating; for pest or weed control at 31 g/ha: 31 g ai/ha, Preemergence; for pest or weed control at 125 g/ha: 125 g ai/ha, preemergence, approx. 10 d
Summary of the method: as §1

[7] = system: Galium (catchweed bedstraw, Galium aparine); test: Test A postemergence; conditions: Galium, post-emergence, 240 h; for pest or weed control at 125 g/ha: 125 g ai/ha, postemergence, visual injury on 0 to 100 scale (0 no effect, 100 complete control), approx. 10 d, read-out: Galium plant response rating; for pest or weed control at 31 g/ha: Postemergence, 31 g ai/ha, visual injury after approx. 10 d, 0 to 100 scale, 0 no effect, 100 complete control, read-out: Plant response rating, Galium
Summary of the method: as §1

Kochia (Kochia scoparia) [8] = test: Test A postemergence; conditions: Bassia scoparia, post-emergence, 240 h; for pest or weed control at 125 g/ha: 125 g ai/ha, postemergence, visual injury on 0 to 100 scale (0 no effect, 100 complete control), approx. 10 d, read-out: Kochia plant response rating; for pest or weed control at 31 g/ha: Postemergence, 31 g ai/ha, visual injury after approx. 10 d, 0 to 100 scale, 0 no effect, 100 complete control, read-out: Plant response rating, Kochia
Summary of the method: as §1

[9] = system: barnyardgrass (Echinochloa crus-galli); test: Test A postemergence; conditions: Echinochloa crus-galli, post-emergence, 240 h; for pest or weed control at 125 g/ha: 125 g ai/ha, postemergence, visual injury on 0 to 100 scale (0 no effect, 100 complete control), approx. 10 d, read-out: Barnyardgrass plant response rating; for pest or weed control at 31 g/ha: Postemergence, 31 g ai/ha, visual injury after approx. 10 d, 0 to 100 scale, 0 no effect, 100 complete control, read-out: Plant response rating, Barnyardgrass
Summary of the method: as §1

[10] = system: blackgrass (Alopecurus myosuroides); test: Test A postemergence; conditions: Alopecurus myosuroides, post-emergence, 240 h; for pest or weed control at 125 g/ha: 125 g ai/ha, postemergence, visual injury on 0 to 100 scale (0 no effect, 100 complete control), approx. 10 d, read-out: Blackgrass plant response rating; for pest or weed control at 31 g/ha: Postemergence, 31 g ai/ha, visual injury after approx. 10 d, 0 to 100 scale, 0 no effect, 100 complete control, read-out: Plant response rating, Blackgrass
Summary of the method: as §1

corn (Zea mays) = test: Test A postemergence; conditions: Zea mays, post-emergence, 240 h; for plant injury at 125 g/ha: 125 g ai/ha, postemergence, visual injury on 0 to 100 scale (0 no effect, 100 complete control), approx. 10 d, read-out: Corn plant response rating; for Corn plant response rating (crop injury, 0 = no effect, 100 = complete kill) at 31 g/ha: Postemergence, 31 g ai/ha, visual injury after approx. 10 d, 0 to 100 scale, 100 complete control
Summary of the method: as §1

[11] = system: giant foxtail (Setaria faberii); test: Test A postemergence; conditions: Setaria faberi, post-emergence, 240 h; for pest or weed control at 125 g/ha: 125 g ai/ha, postemergence, visual injury on 0 to 100 scale (0 no effect, 100 complete control), approx. 10 d, read-out: Foxtail, Giant plant response rating; for pest or weed control at 31 g/ha: Postemergence, 31 g ai/ha, visual injury after approx. 10 d, 0 to 100 scale, 0 no effect, 100 complete control, read-out: Plant response rating, Foxtail, Giant
Summary of the method: as §1

[12] = system: pigweed (Amaranthus retroflexus); test: Test A postemergence; conditions: Amaranthus retroflexus, post-emergence, 240 h; for pest or weed control at 125 g/ha: 125 g ai/ha, postemergence; for pest or weed control at 31 g/ha: Postemergence, 31 g ai/ha, visual injury after approx. 10 d, 0 to 100 scale, 0 no effect, 100 complete control, read-out: Plant response rating, Pigweed
Summary of the method: as §1

[13] = system: ragweed (common ragweed, Ambrosia elatior); test: Test A postemergence; conditions: Ambrosia artemisiifolia, post-emergence, 240 h; for pest or weed control at 125 g/ha: 125 g ai/ha, postemergence; for pest or weed control at 31 g/ha: Postemergence, 31 g ai/ha, visual injury after approx. 10 d, 0 to 100 scale, 0 no effect, 100 complete control, read-out: Plant response rating, Ragweed
Summary of the method: as §1

[14] = system: ryegrass, Italian (Italian ryegrass, Lolium multiflorum); test: Test A postemergence; conditions: Lolium multiflorum, post-emergence, 240 h; for pest or weed control at 125 g/ha: 125 g ai/ha, postemergence; for pest or weed control at 31 g/ha: Postemergence, 31 g ai/ha, visual injury after approx. 10 d, 0 to 100 scale, 0 no effect, 100 complete control, read-out: Plant response rating, Ryegrass, Italian
Summary of the method: as §1

[15] = system: wheat (Triticum aestivum); test: Test A postemergence; conditions: Triticum aestivum, post-emergence, 240 h; for plant injury at 125 g/ha: 125 g ai/ha, postemergence; for plant injury at 31 g/ha: Postemergence, 31 g ai/ha, visual injury after approx. 10 d, 0 to 100 scale, 0 no effect, 100 complete control, read-out: Plant response rating, Wheat
Summary of the method: as §1

[16] = system: barnyardgrass (Echinochloa crus-galli); test: Test B flooded paddy test; conditions: Echinochloa crus-galli, 250 g ai/ha, Flood; 0 to 100 scale where 0 is no effect and 100 is complete control; read-out: Barnyardgrass plant response rating
Summary of the method: (§2)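 Rating scale 0–100 (visual, vs untreated controls) after a 13–15 d greenhouse period; application to the flood layer, 3 cm above soil and maintained; plants at 2-leaf stage when treated.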

[17] = system: ducksalad (Heteranthera limosa); test: Test B flooded paddy test; conditions: Heteranthera limosa, 250 g ai/ha, Flood; 0 to 100 scale where 0 is no effect and 100 is complete control; read-out: Ducksalad plant response rating
Summary of the method: as §2

rice (Oryra sativa) = test: Test B flooded paddy test; conditions: Oryza sativa, 250 g ai/ha, Flood; 0 to 100 scale where 0 is no effect and 100 is complete control; read-out: Rice plant response rating
Summary of the method: as §2

[18] = system: sedge, umbrella (small-flower umbrella sedge, Cyperus difformis); test: Test B flooded paddy test; conditions: Cyperus difformis, 250 g ai/ha, Flood; 0 to 100 scale where 0 is no effect and 100 is complete control; read-out: Sedge, Umbrella plant response rating
Summary of the method: as §2

## CN1C[C@H](c2cc(C(F)F)cs2)[C@@H](C(=O)Nc2cnccc2C(F)(F)F)C1=O [Compound 1091]
Kochia (Kochia scoparia) [1]
  pest or weed control at 31 g/ha: 20%
  pest or weed control at 125 g/ha: 40%
[2]
  pest or weed control at 31 g/ha: 0%
  pest or weed control at 125 g/ha: 0%
[3]
  pest or weed control at 31 g/ha: 50%
  pest or weed control at 125 g/ha: 100%
[4]
  pest or weed control at 31 g/ha: 10%
  pest or weed control at 125 g/ha: 0%
[5]
  pest or weed control at 31 g/ha: 100%
  pest or weed control at 125 g/ha: 0%
[6]
  pest or weed control at 31 g/ha: 0%
  pest or weed control at 125 g/ha: 0%
[7]
  pest or weed control at 125 g/ha: 0%
  pest or weed control at 31 g/ha: 0%
Kochia (Kochia scoparia) [8]
  pest or weed control at 125 g/ha: 0%
  pest or weed control at 31 g/ha: 0%
[9]
  pest or weed control at 125 g/ha: 0%
  pest or weed control at 31 g/ha: 0%
[10]
  pest or weed control at 125 g/ha: 0%
  pest or weed control at 31 g/ha: 0%
Corn (Zea mays)
  plant injury at 125 g/ha: 0%
  Corn plant response rating (crop injury, 0 = no effect, 100 = complete kill) at 31 g/ha: 0%
[11]
  pest or weed control at 125 g/ha: 0%
  pest or weed control at 31 g/ha: 0%
[12]; visual injury on 0 to 100 scale (0 no effect, 100 complete control), approx. 10 d, read-out: Pigweed plant response rating
  pest or weed control at 125 g/ha: 30%
[12]
  pest or weed control at 31 g/ha: 0%
[13]; visual injury on 0 to 100 scale (0 no effect, 100 complete control), approx. 10 d, read-out: Ragweed plant response rating
  pest or weed control at 125 g/ha: 0%
[13]
  pest or weed control at 31 g/ha: 0%
[14]; visual injury on 0 to 100 scale (0 no effect, 100 complete control), approx. 10 d, read-out: Ryegrass, Italian plant response rating
  pest or weed control at 125 g/ha: 0%
[14]
  pest or weed control at 31 g/ha: 0%
[15]; visual injury on 0 to 100 scale (0 no effect, 100 complete control), approx. 10 d, read-out: Wheat plant response rating
  plant injury at 125 g/ha: 0%
[15]
  plant injury at 31 g/ha: 0%
[16]
  pest or weed control at 250 g/ha: 0%
[17]
  pest or weed control at 250 g/ha: 0%
Rice (Oryra sativa)
  pest or weed control at 250 g/ha: 0%
[18]
  pest or weed control at 250 g/ha: 0%

## C=C(C)c1ccc([C@H]2CN(C)C(=O)[C@@H]2C(=O)Nc2ccc(F)c(F)c2F)cc1 [Compound 1148]
Kochia (Kochia scoparia) [1]
  pest or weed control at 31 g/ha: 0%
  pest or weed control at 125 g/ha: 0%
[2]
  pest or weed control at 31 g/ha: 30%
  pest or weed control at 125 g/ha: 90%
[3]
  pest or weed control at 31 g/ha: 90%
  pest or weed control at 125 g/ha: 90%
[4]
  pest or weed control at 31 g/ha: 0%
  pest or weed control at 125 g/ha: 0%
[5]
  pest or weed control at 31 g/ha: 0%
  pest or weed control at 125 g/ha: 0%
[6]
  pest or weed control at 31 g/ha: 0%
  pest or weed control at 125 g/ha: 20%
[7]
  pest or weed control at 125 g/ha: 40%
  pest or weed control at 31 g/ha: 0%
Kochia (Kochia scoparia) [8]
  pest or weed control at 125 g/ha: 0%
  pest or weed control at 31 g/ha: 0%
[9]
  pest or weed control at 125 g/ha: 80%
  pest or weed control at 31 g/ha: 50%
[10]
  pest or weed control at 125 g/ha: 20%
  pest or weed control at 31 g/ha: 0%
Corn (Zea mays)
  plant injury at 125 g/ha: 0%
  Corn plant response rating (crop injury, 0 = no effect, 100 = complete kill) at 31 g/ha: 0%
[11]
  pest or weed control at 125 g/ha: 80%
  pest or weed control at 31 g/ha: 50%
[12]; visual injury vs untreated controls after approx. 10 d, 0 = no effect, 100 = complete control, read-out: Pigweed plant response rating (0 to 100 scale)
  pest or weed control at 125 g/ha: 20%
[12]
  pest or weed control at 31 g/ha: 0%
[13]; visual injury vs untreated controls after approx. 10 d, 0 = no effect, 100 = complete control, read-out: Ragweed plant response rating (0 to 100 scale)
  pest or weed control at 125 g/ha: 0%
[13]
  pest or weed control at 31 g/ha: 0%
[14]; visual injury vs untreated controls after approx. 10 d, 0 = no effect, 100 = complete control, read-out: Ryegrass, Italian plant response rating (0 to 100 scale)
  pest or weed control at 125 g/ha: 0%
[14]
  pest or weed control at 31 g/ha: 0%
[15]; visual injury vs untreated controls after approx. 10 d, 0 = no effect, 100 = complete control, read-out: Wheat plant response rating (0 to 100 scale)
  plant injury at 125 g/ha: 0%
[15]
  plant injury at 31 g/ha: 0%
[16]
  pest or weed control at 250 g/ha: 50%
[17]
  pest or weed control at 250 g/ha: 70%
Rice (Oryra sativa)
  pest or weed control at 250 g/ha: 60%
[18]
  pest or weed control at 250 g/ha: 0%
